Experimental data taken from ChEMBL document CHEMBL1121662 (1981).

Legend:
Type in all cases: functional
Mus musculus [1] = organism: Mus musculus; experiment: Compound was evaluated for Carcinogenicity to produce 0.5 tumors per mouse (B.5)
Mus musculus [2] = organism: Mus musculus; experiment: Compound was evaluated for mutagenicity after threshold range
Mus musculus [3] = organism: Mus musculus; experiment: Compound was evaluated for Carcinogenicity based on concentration necessary to produce one tumor per mouse (Strain A)
Mus musculus [4] = organism: Mus musculus; experiment: Compound was evaluated for low level mutagenicity

SMILES	Log 1/B.5 (Mus musculus [1])	Log 1/Th+200 (Mus musculus [2])	Log 1/B+1 (Mus musculus [3])	Log 1/B+100 (Mus musculus [4])
NC(=O)Nc1cc(NC(N)=O)cc(N(CCCl)CCCl)c1	5.43	-0.01	4.26	0.31
ClCCN(CCCl)c1ccc(/C=C/c2ccccc2)cc1	–	2.04	–	1.99
